The values below are quoted from earlier work in article PMC7510478, “The effect of size, charge, and peptide ligand length on kidney targeting by small, organic nanoparticles” (Bioengineering & Translational Medicine, 2020).

For series [1], the system named is ADPKD patients. An excerpt:
Chronic kidney disease (CKD) affects 600 million people globally and is characterized by gradual kidney function decline. ^1 A common form of CKD is autosomal dominant polycystic kidney disease (ADPKD), which affects over 12 million people worldwide and is characterized by renal cyst formation that can result in the need for dialysis or kidney transplant. ^2 , ^3 , ^4 , ^5 Currently, there is no cure for ADPKD and tolvaptan is the only FDA approved treatment for ADPKD. ^6 Despite enthusiasm, tolvaptan has been reported to cause several side effects including polyuria, thirst, nocturia, and dru ...

For series [2], the system named is megalin. Further details: method as in PMID 27617593, PMID 19202329, PMID 11994745, PMID 9574443.
Setting [3] is: study of 961 ADPKD patients undergoing tolvaptan treatment.

As to `Cc1ccccc1C(=O)Nc1ccc(C(=O)N2CCCC(O)c3cc(Cl)ccc32)c(C)c1` (stereo not shown) [tolvaptan], the “Patients affected by polyuria” value in series [1] (ADPKD patients on tolvaptan) is reported as 38%. Also, in series [1] (setting [3]), the “Adverse event rate, nocturia” value is approximately 29% and the “Adverse event rate, thirst” value is recorded as “approximately 55%”.

Turning to [Lys–Lys–Glu–Glu–Glu]3–Lys [(KKEEE)3K], the “Uptake in megalin‐deficient mice” value in series [2] is listed as “significantly reduced uptake”.
